In patent US5977063A, “Alkylated hexapeptides” (Eli Lilly and Company, priority 1998, dated 1999):

Columns and labels:
Assay type in all cases: cell-based
[1] = test system: Enterococcus faecium and faecalis (RESISTANT); conditions: geometric mean of 4-6 isolates
Description: (§1) The antibacterial efficacy of the present compounds is illustrated by Table II. The minimal inhibitory concentrations (MICs) were determined using a standard broth micro-dilution assay.

[2] = test system: Enterococcus faecium and faecalis (SENSITIVE); test: MIC, standard broth micro-dilution assay, SENSITIVE enterococci; parameters: unit not given here; conditions: geometric mean of 4-6 isolates
Description: as §1

[3] = test system: Staphylococcus aureus 446; test: MIC, standard broth micro-dilution assay, SA 446; parameters: unit not given here
Description: as §1

[4] = test system: Staphylococcus aureus 489; test: MIC, standard broth micro-dilution assay, SA 489; parameters: unit not given here
Description: as §1

[5] = test system: Staphylococcus aureus 447; test: MIC, standard broth micro-dilution assay, SA 447; parameters: unit not given here
Description: as §1

[6] = test system: Staphylococcus haemolyticus 105; test: MIC, standard broth micro-dilution assay, SH 105; parameters: unit not given here
Description: as §1

[7] = test system: Staphylococcus haemolyticus 415; test: MIC, standard broth micro-dilution assay, SH 415; parameters: unit not given here
Description: as §1

[8] = test system: Staphylococcus epidermidis 270; test: MIC, standard broth micro-dilution assay, SE 270; parameters: unit not given here
Description: as §1

[9] = test system: Streptococcus pyogenes C203; test: MIC, standard broth micro-dilution assay, SPY C203; parameters: unit not given here
Description: as §1

[10] = test system: Streptococcus pneumoniae P1; test: MIC, standard broth micro-dilution assay, SPN P1; parameters: unit not given here
Description: as §1

## C[C@@H]1O[C@@H](O[C@@H]2c3ccc(c(Cl)c3)Oc3cc4cc(c3O[C@@H]3O[C@H](CO)[C@@H](O)[C@H](O)[C@H]3O[C@H]3C[C@](C)(NCc5ccc(-c6ccc(Cl)cc6)cc5)[C@@H](O)[C@H](C)O3)Oc3ccc(cc3Cl)[C@@H](O)[C@@H](NCCCCCCc3ccccc3)C(=O)N[C@@H](CC(N)=O)C(=O)N[C@H]4C(=O)N[C@H]3C(=O)N[C@@H]2C(=O)N[C@H](C(=O)O)c2cc(O)cc(O)c2-c2cc3ccc2O)C[C@](C)(N)[C@H]1O [Example 28, N^1 -(6-PHENYL-n-HEXYL)-N^DISACC -(p-(p-CHLOROPHENYL)BENZYL)DESLEUCYL-A82846B]
[1]
  Minimal Inhibitory Concentration (MIC) RESISTANT: 6.7
[2]
  Minimal Inhibitory Concentration (MIC) SENSITIVE: 7
[3]
  Minimal Inhibitory Concentration (MIC) SA 446: 8
[4]
  Minimal Inhibitory Concentration (MIC) SA 489: 8
[5]
  Minimal Inhibitory Concentration (MIC) SA 447: 8
[6]
  Minimal Inhibitory Concentration (MIC) SH 105: 4
[7]
  Minimal Inhibitory Concentration (MIC) SH 415: 2
[8]
  Minimal Inhibitory Concentration (MIC) SE 270: 4
[9]
  Minimal Inhibitory Concentration (MIC) SPY C203: 4
[10]
  Minimal Inhibitory Concentration (MIC) SPN P1: 16
